# Measured values as given in patent publication US9326927B2, “Use of cannabinoid compounds for stimulating melanogenesis” (L'OREAL, priority 2011, dated 2016).
# Tests used:
# [1] = system: Normal human epidermal melanocytes (NHEMs); assay: Determination of the melanin content of the melanocytes (Example 1); assay type: cell-based; design: key to amount of melanin in NHEM cells, mean: fold of untreated control melanin amount (control = 1); details: for effect of receptor antagonist on the propigmenting effect of mAEA, in words: antagonist in combination with mAEA 1 μM (SR1 0.1 μM); for effect on amount of melanin in the melanocytes (NHEMs), in words: 1 μM, by means of the CB1 receptor
# Method: Normal human epidermal melanocytes (NHEMs) isolated from foreskins and supplied by Promocell (Heidelberg, Germany) are cultured for 24 h at 37° C. in a humid atmosphere at 5% CO2 in an appropriate culture medium M2 (Promocell).
# The AEA and the other compounds are added directly to the culture medium. Twenty-four hours after each treatment, the cell viability was measured using Trypan blue exclusion dye (Maccarone et al., 2003).
# The mAEA, the AEA and the ACEA are tested in vitro at a concentration of 1 μM and compared. The mAEA is also used at this concentration when it is used in combination with SR1 at 0.1 μM.
# Moreover, the mAEA was also tested, alone, at concentrations of 0.5, 1.0, 1.5, 2.0, 2.5 and 3.0 μM.
# The amount of melanin present in the NHEM cells is measured according to a method known to those skilled in the art (Xiao et al., Arch Dermatol Res 2007; 299: 245-57). According to this method, the NHEM cells are treated with trypsin and washed twice with a phosphate buffered saline. The samples are then resuspended in 200 μl of MilliQ water, and 1 ml of an ethanol: ether mixture (1:1, vol/vol) is added in order to remove the opaque substances other than melanin. After 15 minutes, the samples are centrifuged at 600 g for 5 minutes. The pellet is air-dried and dissolved in 200 μl of 1 N sodium hydroxide. The samples are then heated at 80° C. for one hour and cooled.
# The amount of melanin is determined by spectrophotometry at 450 nm using the standard melanin controls supplied by Sigma Chemical Co., so as to verify the linearity range of the test. The amount of melanin is expressed relative to the control.
# The results given are the means, with their standard deviations, of 3 independent tests, each carried out in triplicate. They were compared by analysis of variance (ANOVA).
# [2] = system: NHEKs+NHEMs coculture; assay: Melanin production in NHEM-NHEK coculture (Example 4); assay type: cell-based, human; details: 72 h
# Method: (§1) Primary human melanocytes (NHEMs) were seeded into 24-well plates in the presence (coculture) of normal human epidermal keratinocytes (NHEKs) and then cultured for 24 h. The cells were then treated with nothing (negative control), IBMX (positive control, 200 μM), or methanandamide (mAEA, 1 μM).
# (§2) After treatment, the cells were incubated for 72 h, all the experimental conditions having been carried out in triplicate.
# (§3) After 72 h of incubation, the cells were lysed with a 0.5 N NaOH solution in order to extract the melanin.
# (§4) Quantification of the pigmentation by microscopic quantification of the melanin is then carried out and makes it possible to illustrate a propigmenting activity of the test compound.
# (§5) The optical density of the samples was measured at 405 nm, with reference to an exogenous melanin range (standard melanin curve 0.39 to 100 μg/ml).
# [3] = system: pigmented reconstructed epidermises (normal human melanocytes and keratinocytes); assay: Propigmenting effect on pigmented reconstructed epidermises (PREs), melanin quantified by image analysis (Example 3); assay type: cell-based
# Method: Pigmented epidermises are reconstructed on a collagen support (BPER [biodressing for reconstructed epidermis]) using normal human melanocytes and keratinocytes.
# The epidermises are obtained after 8 days of reconstruction; the melanocytes chosen are of estimated phototype IV.1.
# Some epidermises are treated daily with the placebo, others with the test product mAEA at different concentrations (1 μM and 3 μM).
# Each experimental condition is performed in quadruplicate.
# The histological quality of the epidermises after treatment is evaluated on histological sections after HES staining in order to determine the impact of the treatment on the epidermises. Also, the physiology of the melanocytes is studied in order to detect any melano-cytotoxicity. If no histological modification nor any melanotoxic effect of the product evaluated is noted, the pigmentation is quantified by quantifying the melanin on histological sections by image analysis.
# as §4
# The melanin present in the epidermis is stained on histological sections (Fontana Masson staining) and then quantified by image analysis. For this, each epidermis is photographed over its entire width using a microscope. Approximately 10 images are acquired per epidermis (white light, ×20 magnification).
# The area taken up by melanin is quantified using custom-designed image analysis software. Briefly, each image is segmented into 4 zones according to their color (lumen, stratum corneum, live epidermis and BPER). […] The pixels occupied by the melanin in the whole epidermis or the live layers are then quantified.
# This quantification takes into account the area taken up by the melanin and also the average localization of the melanin in the epidermis.
# The results below are expressed as percentage relative stimulation with respect to the control cultured in standard coculture medium.
# [4] = system: Primary human melanocytes (NHEMs); assay: Melanin production in NHEMs (Example 4); assay type: cell-based; details: 1 μM, 72 h
# Method: as §1, §2, §3, §4, §5
# [5] = expressed relative to the control, compound alone at 1 μM, mean of 3 independent tests
compound,measurement,setting,value
"N-[(1S)-endo-1,3,3-trimethy-1-bicyclo[2.2.1]heptan-2-yl]-5-(4-choro-3-methylphenyl)-1-(4-methylbenzyl)pyrazole-3-carboxamide [SR2, reference compound]","effect of receptor antagonist on the propigmenting effect of mAEA, in words",[1],"does not, on the other hand, prevent mAEA from having this effect"
"CCCCC/C=C\C/C=C\C/C=C\C/C=C\CCCC(=O)NC(C)CO (stereo not drawn) [mAEA, R(+)-arachidonyl-1′-hydroxy-2′-propylamide]","melanin production in NHEK+NHEM cells, in words",[2]; 1 μM,increase in melanin production
same,"melanin production in NHEKs+NHEMs compared with NHEMs alone and IBMX positive control, in words",[2]; mAEA 1 μM vs IBMX 200 μM,"greater than in NHEMs alone, even exceeding that of the IBMX positive control"
same,"effect on amount of melanin in the melanocytes (NHEMs), in words",[1],significantly increase the amount of melanin
same,"dose/effect relationship of melanin production in NHEM cells, in words",[1]; 0.5 to 3.0 μM,dose-dependent increase in melanin production
same,"amount of melanin in NHEM cells, mean",[1]; [5],2.80
same,"amount of melanin in NHEM cells, mean","[1]; relative to the control, mAEA 1 μM in combination with SR1 0.1 μM",1.22
same,"amount of melanin in NHEM cells, mean","[1]; relative to the control, mAEA alone 0.5 μM",1.75
same,"amount of melanin in NHEM cells, mean","[1]; relative to the control, mAEA alone 1.5 μM",3.30
same,"amount of melanin in NHEM cells, mean","[1]; relative to the control, mAEA alone 2 μM",3.34
same,"amount of melanin in NHEM cells, mean","[1]; relative to the control, mAEA alone 2.5 μM",3.75
same,"amount of melanin in NHEM cells, mean","[1]; relative to the control, mAEA alone 3 μM",4.13
same,"amount of melanin in NHEM cells, mean","[1]; relative to the control, mAEA in combination with SR2",2.34
same,"melanin, percentage relative stimulation with respect to the control",[3]; 1 μM SYST D17,315%
same,"melanin production in pigmented reconstructed epidermises, in words","[3]; 1 μM and 3 μM, daily treatment",very large increase in melanin production
same,"melanin, percentage relative stimulation with respect to the control","[3]; second line, printed 1 μM SYST D17",356.25%
same,"melanin production in NHEM cells, in words",[4],increase in melanin production
"CCCCC/C=C\C/C=C\C/C=C\C/C=C\CCCC(=O)NCCCl [ACEA, Arachidonyl-2′-chloroethylamide]","effect on amount of melanin in the melanocytes (NHEMs), in words",[1],significantly increase the amount of melanin
same,"amount of melanin in NHEM cells, mean",[1]; [5],2.14
"CCCCC/C=C\C/C=C\C/C=C\C/C=C\CCCC(=O)NCCO [Anandamide, N-arachidonoylethanolamine]","effect on amount of melanin in the melanocytes (NHEMs), in words",[1],significantly increase the amount of melanin
same,"amount of melanin in NHEM cells, mean",[1]; [5],2.09
"Cc1c(C(=O)NN2CCCCC2)nn(-c2ccc(Cl)cc2Cl)c1-c1ccc(Cl)cc1 [SR1, N-piperidino-5-(4-chlorophenyl)-1-(2,4-dichlorophenyl)-4-methyl-3-pyrazole carboxamide, reference compound]","effect of receptor antagonist on the propigmenting effect of mAEA, in words",[1],prevents mAEA from having its propigmenting effect
